The source of these data is PubChem BioAssay AID1552 (Sanford-Burnham Center for Chemical Genomics, 2009).

Active and inactive are the calls of the source. The rule behind the calls is not given here. A value given as a limit tells only on which side of the number the result lay.

In this test the target is Ubiquitin-conjugating enzyme E2 N (Homo sapiens) (UniProt P61088). The test can be described thus: NMR detection of UBE2N ligand binding – biophysical, purified protein (AID 1552). The settings on record: NMR binding to purified UBE2N.
Chain of Ubiquitin-conjugating enzyme E2 N (Homo sapiens) (P61088 whole entry, looked up): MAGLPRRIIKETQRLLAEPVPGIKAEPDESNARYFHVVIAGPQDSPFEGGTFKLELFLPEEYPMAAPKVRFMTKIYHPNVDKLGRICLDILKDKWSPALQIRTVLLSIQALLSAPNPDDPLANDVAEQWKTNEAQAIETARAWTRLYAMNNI
The term Kd denotes the equilibrium constant for the complex coming apart. Turning to `Cc1c(C)[n+]([O-])c(-c2ccc([N+](=O)[O-])cc2)n1O`, the Kd was > 4 mM (inactive).

On to `COCC(=O)Nc1cccc(Br)c1`, for which the Kd was > 4 mM (inactive).

Consider `O=C(CCc1ccc(O)cc1)c1c(O)cc(O)cc1O`, for which the Kd is > 4 mM (inactive).

As for `O=C1NC(=Nc2ccccc2)S/C1=C/c1cccnc1`, the Kd was > 4 mM (inactive).

In the case of `S=c1ccc(N2CCCCC2)n[nH]1`, the Kd is > 4 mM (inactive).

`COC(=O)c1cc(C)on1`: the Kd is > 4 mM (inactive).

In the case of `O=C(O)c1cc(O)c(O)c(O)c1`, the Kd was > 4 mM (inactive).

On to `C[N+](C)(C)CC(=O)[O-]`, for which the Kd was > 4 mM (inactive).

`CC1(C)Cc2cccc(CO)c2O1`: the Kd is > 4 mM (inactive).

As to `CCCC(=O)N1CCSCC1`, the Kd was > 4 mM (inactive).

Take `Cc1ccc(C(=O)NCCO)c(Cl)c1`: the Kd was > 4 mM (inactive).

For the compound `Clc1ccccc1-c1nc(-c2cccnc2)no1`, the Kd was > 4 mM (inactive).

`Cc1ccc(C2NS(=O)(=O)N=C2N)cc1` (configuration not stated): the Kd is > 4 mM (inactive).

As to `O=C(O)Cc1n[nH]c(=O)c2ccccc12`, the Kd was > 4 mM (inactive).

Consider `O=C(Nc1ccc(-c2nnco2)cc1)c1ccccc1`, for which the Kd is > 4 mM (inactive).

With `CC(C)(C)CC(=O)N1CCC(C(N)=O)CC1`, the Kd is > 4 mM (inactive).

Consider `CC(=O)c1ccc[nH]1`, for which the Kd is > 4 mM (inactive).

On to `CN1CCN(C(=O)c2cc(-c3ccccc3)on2)CC1`, for which the Kd is > 4 mM (inactive).

For the compound `Nc1nncn1C(=O)c1c(Cl)cccc1Cl`, the Kd is > 4 mM (inactive).

On to `Cc1ccc(C(=O)Nn2cnnc2)s1`, for which the Kd was > 4 mM (inactive).

For `C[C@@H]1CC[C@@]2(OC1)OC1C(O)C3C4CC[C@H]5C[C@H](O[C@@H]6O[C@H](CO)[C@H](O[C@@H]7O[C@H](CO)[C@@H](O)[C@H](O[C@@H]8OC[C@@H](O)[C@H](O)[C@H]8O)[C@H]7O[C@@H]7O[C@H](CO)[C@H](O)[C@H](O[C@@H]8O[C@H](CO)[C@@H](O)[C@H](O)[C@H]8O)[C@H]7O)[C@H](O)[C@H]6O)[C@H](O)C[C@]5(C)C4CC[C@]3(C)C1[C@@H]2C` (some centres not stated), the Kd is > 4 mM (inactive).

As for `Cc1cc(=O)n(CCc2ccccc2)c(O)c1C#N`, the Kd was > 4 mM (inactive).

For the compound `O=C(O)C1CC(=O)N(C2Cc3ccccc3C2)C1` (configuration not stated), the Kd is > 4 mM (inactive).

For the compound `O=C(O[C@@H]1Cc2c(O)cc(O)cc2O[C@@H]1c1cc(=O)c(O)c2c(O)c(O)cc([C@H]3Oc4cc(O)cc(O)c4C[C@H]3O)c2c1)c1cc(O)c(O)c(O)c1`, the Kd is > 4 mM (inactive).

As for `OCC1CN(Cc2ccccc2)CCO1` (configuration not stated), the Kd was > 4 mM (inactive).

In the case of `O=C(Nc1ccc2c(c1)OCO2)c1cccs1`, the Kd was > 4 mM (inactive).

As to `O=C(Nc1ccc2ccccc2c1)c1cnccn1`, the Kd is > 4 mM (inactive).

In the case of `OCc1cccc2c1OCO2`, the Kd is > 4 mM (inactive).

For the compound `Cc1cccc(NS(=O)(=O)c2cccs2)n1`, the Kd is > 4 mM (inactive).

On to `COc1cc2c(cc1OC)C1(O)C(=O)c3ccc(O)c(C(=O)O)c3OC1CO2` (configuration not stated), for which the Kd was > 4 mM (inactive).

As to `CC(=O)c1cccc(N=C2NC(=O)CS2)c1`, the Kd is > 4 mM (inactive).

For the compound `COc1ccc(-c2nc3nc(C)cc(C)n3n2)cc1`, the Kd is > 4 mM (inactive).

With `Cc1ccc(S(=O)(=O)CC(=O)N(C)C)cc1`, the Kd is > 4 mM (inactive).

As to `O=C1Nc2ccccc2C12OCCO2`, the Kd was > 4 mM (inactive).

In the case of `CNC(=S)Nc1ccc(C(=O)O)cc1`, the Kd was > 4 mM (inactive).

Regarding `O=C(c1ccccc1)c1cncc(Br)c1`, the Kd was > 4 mM (inactive).

Regarding `Nc1ccc2sccc2c1`, the Kd is > 4 mM (inactive).

In the case of `CCC(C)C(=O)OC1[C@@H]2CC3=C4CC(=O)O[C@@H](c5ccoc5)[C@]4(C)CCC3C(C)(C2=O)[C@@H](CC(=O)OC)C1(C)C` (some centres not stated), the Kd is > 4 mM (inactive).

In the case of `CC1SC(=NC(=O)c2ccco2)NC1=O` (configuration not stated), the Kd was > 4 mM (inactive).

With `COc1ccc2c(c1)[nH]c1c(C)nccc12`, the Kd is > 4 mM (inactive).

On to `NCCN=C1NS(=O)(=O)c2ccccc21`, for which the Kd was > 4 mM (inactive).

Consider `Cc1cc(C)n2nc(C(=O)NCc3ccco3)nc2n1`, for which the Kd is > 4 mM (inactive).

`CCc1nnc(NC(C)=O)s1`: the Kd was > 4 mM (inactive).

Take `Cn1c(SCc2ccon2)nc2ccccc2c1=O`: the Kd is > 4 mM (inactive).

Turning to `Cc1ccccc1N1CCN(C(=O)C2CCCCC2)CC1`, the Kd is > 4 mM (inactive).

`CC1=CC(=O)CC(C)(C)C1(O)/C=C/C(C)=C\C(=O)O` (configuration not stated): the Kd was > 4 mM (inactive).

Consider `Cc1cc(NC(=O)Cc2c(F)cccc2Cl)no1`, for which the Kd is > 4 mM (inactive).

Take `c1ccc(-n2nnnc2-n2cnc3ccccc32)cc1`: the Kd was > 4 mM (inactive).

On to `Cc1ccccc1CSc1nncn1N`, for which the Kd is > 4 mM (inactive).

For `COc1ccc(NC(=O)N2CCCCC2)cc1`, the Kd was > 4 mM (inactive).

For the compound `CC(O)c1nc2ccccc2[nH]1` (configuration not stated), the Kd was > 4 mM (inactive).

For `CCSc1n[nH]c(=O)[nH]c1=O`, the Kd was > 4 mM (inactive).

For `Nc1c(F)c(F)nc(F)c1F`, the Kd was > 4 mM (inactive).

Take `N#CCc1nc2ccccc2s1`: the Kd was > 4 mM (inactive).

Take `O=C(O)CCC(=O)Nc1ccccc1F`: the Kd is > 4 mM (inactive).

In the case of `COC(=O)c1cccc(N)c1`, the Kd is > 4 mM (inactive).

On to `CC(=O)Nc1cccc(N2CCCC2=O)c1`, for which the Kd was > 4 mM (inactive).

For `Cc1cc(OC(=O)c2ccco2)c([N+](=O)[O-])c(=O)[nH]1`, the Kd was > 4 mM (inactive).

As to `CN1CCn2c1nc(N1CCCCC1)nc2=O`, the Kd was > 4 mM (inactive).

With `O=C(Nc1ccc2c(c1)OCCO2)c1c(F)cccc1F`, the Kd is > 4 mM (inactive).

Regarding `O=S1(=O)CCC(NC(=S)Nc2ccc(O)cc2)C1` (configuration not stated), the Kd is > 4 mM (inactive).

As for `CC(=O)O[C@@H]1CC2C(C)(C)C(=O)C3OC3[C@]2(C)C2CC[C@@]3(C)[C@H](c4ccoc4)OC(=O)C4OC43[C@@]21C` (some centres not stated), the Kd was > 4 mM (inactive).

As for `CC(=O)NC(O)C(=O)c1cccs1` (configuration not stated), the Kd was > 4 mM (inactive).

Take `O=C(O)Cc1c[nH]c2ccccc12`: the Kd was > 4 mM (inactive).

Consider `CC1CCN(C(=S)c2ccccc2O)CC1`, for which the Kd is > 4 mM (inactive).

Take `c1ccc(-c2csc3ncn4nnnc4c23)cc1`: the Kd was > 4 mM (inactive).

Regarding `Nc1cccc(F)c1-c1ncon1`, the Kd is > 4 mM (inactive).

For `NC(=O)C1CCN(C(=O)c2ccccc2)CC1`, the Kd is > 4 mM (inactive).

`CSc1ccccc1NC(=O)c1ccoc1C`: the Kd is > 4 mM (inactive).

Consider `Nc1cccnc1N1CCOCC1`, for which the Kd was > 4 mM (inactive).

For `Cc1nc2[nH]onc2c2nccc(=O)c12`, the Kd is > 4 mM (inactive).

On to `O=C(c1cnsn1)N1CCN(c2ccccc2)CC1`, for which the Kd was > 4 mM (inactive).

With `O=C(O)c1cnn2ccccc12`, the Kd is > 4 mM (inactive).

Consider `CCn1c(-c2c[nH]c3ccccc23)n[nH]c1=S`, for which the Kd was > 4 mM (inactive).

Take `CC(=O)O[C@H]1CCC2(C)C3=C(CCC2C1(C)C)[C@@]1(C)CC[C@@H](C(C)CCC=C(C)C)[C@]1(C)CC3` (some centres not stated): the Kd was > 4 mM (inactive).

Consider `NC(=O)CSc1nnc2ccc(-c3ccco3)nn12`, for which the Kd is > 4 mM (inactive).

Regarding `O=C(CSc1ncnc2ccccc12)NCCCO`, the Kd was > 4 mM (inactive).

As for `Cc1cc(=O)n(C(N)=S)[nH]1`, the Kd is > 4 mM (inactive).

Regarding `O=C1NC(=S)N/C1=C\c1ccccc1`, the Kd was > 4 mM (inactive).

For the compound `CCOC(=O)c1cnc2cc(C)nn2c1C`, the Kd is > 4 mM (inactive).

On to `CC(C)Oc1ccc(NC(N)=O)cc1`, for which the Kd is > 4 mM (inactive).

For `CC(C)=CC(=O)Nc1ccccc1Br`, the Kd is > 4 mM (inactive).

Take `NC(=O)c1ccc(SCC(=O)O)c([N+](=O)[O-])c1`: the Kd is > 4 mM (inactive).

Take `COC(=O)c1c(C)cc(OC)cc1O`: the Kd was > 4 mM (inactive).

With `CC(=O)C1CC[C@H]2C3CC[C@H]4C[C@H](O)CC[C@]4(C)C3CC[C@]12C` (some centres not stated), the Kd is > 4 mM (inactive).

With `Cc1nnc(NCc2cccnc2)[nH]c1=O`, the Kd is > 4 mM (inactive).

With `O=C(O)Cn1c(=O)sc2ccccc21`, the Kd was > 4 mM (inactive).

Turning to `CC(C)=CCCC1(C)C=Cc2c(O)c3c(c(CC=C(C)C)c2O1)OC12C(=CCCC1C(C)(C)O[C@@]2(C/C=C(\C)C(=O)O)C(=O)O)C3=O` (some centres not stated), the Kd was > 4 mM (inactive).

In the case of `NS(=O)(=O)c1ccc(N2CCCC2=O)cc1`, the Kd was > 4 mM (inactive).

Regarding `Cc1nnsc1C(=O)N(C)c1ccccc1`, the Kd was > 4 mM (inactive).

`Cn1cnnc1SCCCNC(=O)Nc1ncccn1`: the Kd is > 4 mM (inactive).

For `COc1cc(N)ccc1NC(=O)c1cccs1`, the Kd was > 4 mM (inactive).

On to `CC(C)CCCC(C)[C@H]1CCC2C3CC=C4C[C@@H](O)CC[C@]4(C)C3CC[C@@]21C` (some centres not stated), for which the Kd is > 4 mM (inactive).

In the case of `CN1C(CC(=O)c2ccccc2)CCCC1CC(O)c1ccccc1` (configuration not stated), the Kd is > 4 mM (inactive).

On to `O=C(c1ccc(F)cc1)C1CCNCC1`, for which the Kd is > 4 mM (inactive).

`O=C1NC2NC(=O)N(c3ccccc3)C2N1` (configuration not stated): the Kd was > 4 mM (inactive).

Consider `CN1CCN(C2CCSC2)CC1` (configuration not stated), for which the Kd was > 4 mM (inactive).

`NC(=O)c1ccc(-c2csnn2)cc1`: the Kd was > 4 mM (inactive).

Take `Cc1cc(NC(=O)c2cccc(N3C(=O)CCC3=O)c2)no1`: the Kd was > 4 mM (inactive).

As to `CCOC(=O)Cc1nc2ccccc2[nH]1`, the Kd was > 4 mM (inactive).

On to `CN(C)C(=O)Oc1ccc(-c2nnco2)cc1`, for which the Kd is > 4 mM (inactive).

In the case of `OCc1snnc1-c1ccccc1`, the Kd was > 4 mM (inactive).
